Assay results taken from ChEMBL document CHEMBL3632515, “Discovery of an L-alanine ester prodrug of the Hsp90 inhibitor, MPC-3100” (Bioorg Med Chem Lett, 2015).
In brackets after ≈: the same amount, converted by molar mass. Activity calls are given as the source filed them. The calls are words filed in the database; no cut-off is given here.

Legend:
NCI-N87 [1] = test: Antitumor activity against human NCI-N87 cells xenografted in mouse assessed as tumor growth inhibition at 200 mg/kg, po relative to control; type: functional; conditions: read-out: TGI
[2] = Tmax in mouse at 200 mg/kg, po administered with 2% CMC by LC-ESI-MS/MS analysis; type: ADME, organism-based; conditions: in vivo
[3] = Oral bioavailability in mouse at 200 mg/kg administered with 2% CMC by LC-ESI-MS/MS analysis; type: ADME, organism-based; conditions: in vivo
[4] = Apparent permeability of the compound at pH 6.2; type: physicochemical; conditions: not told
[5] = AUC in mouse at 200 mg/kg, po administered with 40% captisol by LC-ESI-MS/MS analysis; type: ADME, organism-based; conditions: in vivo
[6] = AUC in mouse at 200 mg/kg, po administered with 2% CMC by LC-ESI-MS/MS analysis; type: ADME, organism-based; conditions: in vivo
[7] = Oral bioavailability in mouse at 200 mg/kg administered with 40% captisol by LC-ESI-MS/MS analysis; type: ADME, organism-based; conditions: in vivo
[8] = Cmax in mouse at 200 mg/kg, po administered with 40% captisol by LC-ESI-MS/MS analysis; type: ADME, organism-based; set-up: dose 200 mg/kg, route oral; conditions: in vivo
Liver [9] = test: Drug level in mouse liver microsomes treated with MPC-0767; type: ADME
[10] = Aqueous solubility of the compound in simulated intestinal fluid at pH 6.8; type: physicochemical
Plasma [11] = test: Drug level in mouse plasma treated with MPC-0767; type: ADME, cell-free
[12] = Cmax in mouse at 200 mg/kg, po administered with 2% CMC by LC-ESI-MS/MS analysis; type: ADME, organism-based; set-up: dose 200 mg/kg, route oral; conditions: in vivo
[13] = Tmax in mouse at 200 mg/kg, po administered with 40% captisol by LC-ESI-MS/MS analysis; type: ADME, organism-based; conditions: in vivo
[14] = Kinetic solubility of the compound at pH 6.5; type: physicochemical; conditions: buffer, read-out: Kinetic_solubility
Liver microsome [15] = test: Drug level in human liver microsomes treated with MPC-0767; type: ADME
[16] = Drug level in simulated intestinal fluid treated with MPC-0767 at pH 6.8 in presence of pancreatin; type: physicochemical; conditions: simulated gi fluid
[17] = Toxicity in po dosed nu+/- mouse; type: organism-based; conditions: in vivo
NCI-N87 [18] = test: Antitumor activity against human NCI-N87 cells xenografted in mouse assessed as tumor growth inhibition at 265 mg/kg, po; type: functional, organism-based
[19] = Half life in simulated gastric fluid at pH 1.2 in presence of pepsin; type: ADME; conditions: simulated gastric fluid with pepsin
[20] = Half life in simulated gastric fluid at pH 1.2; type: ADME
[21] = Half life in human plasma; type: ADME, cell-free
[22] = Aqueous solubility of the compound in simulated intestinal fluid at pH 6.5 to 6.8; type: physicochemical
Plasma [23] = test: Prodrug conversion in mouse plasma assessed as formation of MPC-3100; type: ADME, cell-free
[24] = Half life in simulated intestinal fluid at pH 6.8 in presence of pancreatin; type: ADME; conditions: simulated intestinal fluid with pancreatin
Mus musculus [25] = test: Cmax in mouse assessed as MPC-3100 at 265 mg/kg, po administered with 2% CMC by LC-ESI-MS/MS analysis; type: ADME, organism-based; set-up: dose 265 mg/kg, route oral; conditions: in vivo
[26] = Half life in simulated intestinal fluid at pH 6.8; type: ADME
Mus musculus [27] = test: Toxicity in mouse xenografted with human NCI-N87 cells assessed as body weight loss at 265 mg/kg, po; type: organism-based; conditions: in vivo
[28] = Half life in mouse liver microsomes in absence of NADPH; type: ADME
Mus musculus [29] = test: AUC in mouse assessed as MPC-3100 at 265 mg/kg, po administered with 2% CMC by LC-ESI-MS/MS analysis; type: ADME, organism-based; conditions: in vivo
[30] = Half life in mouse plasma; type: ADME, cell-free
Mus musculus [31] = test: Oral bioavailability in mouse assessed as MPC-3100 at 265 mg/kg administered with 2% CMC by LC-ESI-MS/MS analysis; type: ADME, organism-based; conditions: in vivo
[32] = Half life in mouse liver microsomes in presence of NADPH; type: ADME
Liver [33] = test: Prodrug conversion in mouse liver microsomes assessed as formation of MPC-3100; type: ADME
Mus musculus [34] = test: Tmax in mouse assessed as MPC-3100 at 265 mg/kg, po administered with 2% CMC by LC-ESI-MS/MS analysis; type: ADME, organism-based; conditions: in vivo
Liver microsome [35] = test: Prodrug conversion in human liver microsomes assessed as formation of MPC-3100; type: ADME
[36] = Half life in human liver microsomes in absence of NADPH; type: ADME
[37] = Half life in phosphate buffer at pH 7.4; type: physicochemical
[38] = Half life in monkey plasma; type: ADME, cell-free, Macaca mulatta; conditions: rhesus monkey
[39] = Half life in human liver microsomes in presence of NADPH; type: ADME
Mus musculus [40] = test: Toxicity in nu+/- mouse assessed as mortality at 286 mg/kg, po; type: organism-based; conditions: in vivo
Mus musculus [41] = test: Oral bioavailability in mouse assessed as MPC-3100; type: ADME, organism-based; conditions: in vivo
NCI-N87 [42] = test: Antitumor activity against human NCI-N87 cells xenografted in mouse assessed as tumor regression; type: functional

Compound `C[C@H](O)C(=O)N1CCC(CCn2c(Sc3cc4c(cc3Br)OCO4)nc3c(N)ncnc32)CC1` has an inhibition in vivo at 200 mg/kg (NCI-N87 [1]) of 46%, a Tmax [2] of 18 min and a bioavailability [3] of 21%. For the same compound, the Papp [4] was 420 ×10⁻⁶ cm/s, the AUC [5] was 113 µg·h/mL and the AUC [6] was 35100 ng·h/mL. For the same compound, the bioavailability [7] was 67%, the Cmax [8] was 24900 ng/mL and the Drug metabolism (Liver [9]) was “metabolite_detected”. The solubility [10] was 7.5 µg/mL (≈ 13.6 µM), the Drug metabolism (Plasma [11]) was “metabolite_detected” and the Cmax [12] was 7370 ng/mL. The Tmax [13] was 1 h, the solubility kinetic [14] was 10.2 µg/mL (≈ 18.6 µM) and the Drug metabolism (Liver microsome [15]) was “metabolite_detected”. The Drug metabolism [16] was “metabolite_detected”.

Work on `C[C@H](N)C(=O)O[C@@H](C)C(=O)N1CCC(CCn2c(Sc3cc4c(cc3Br)OCO4)nc3c(N)ncnc32)CC1.Cl.Cl` yielded an MTD [17] of 252 mg/kg.

In the case of `C[C@H](N)C(=O)O[C@@H](C)C(=O)N1CCC(CCn2c(Sc3cc4c(cc3Br)OCO4)nc3c(N)ncnc32)CC1`, the TGI (NCI-N87 [18]) is reported as “Active”.

`CS(=O)(=O)O.C[C@H](N)C(=O)O[C@@H](C)C(=O)N1CCC(CCn2c(Sc3cc4c(cc3Br)OCO4)nc3c(N)ncnc32)CC1` showed a half-life [19] of over 240 min, a half-life [20] of over 240 min and a half-life [21] of 149 min. The solubility [22] was over 1000 µg/mL, the Drug metabolism (Plasma [23]) was “metabolite_detected” and the half-life [24] was 22 min. For the same compound, the Cmax (Mus musculus [25]) was 21562 ng/mL, the Papp [4] was 2.7 ×10⁻⁶ cm/s and the half-life [26] was 173 min. The Activity (Mus musculus [27]) was “Non-toxic”, the half-life [28] was under 2 min and the AUC (Mus musculus [29]) was 94194 ng·h/mL. The half-life [30] was under 2 min, the F (Mus musculus [31]) was 56% and the half-life [32] was under 2 min. For the same compound, the Drug metabolism (Liver [33]) was “metabolite_detected”, the Tmax (Mus musculus [34]) was 1 h and the Drug metabolism (Liver microsome [35]) was “metabolite_detected”. It also gave a half-life [36] of 2 min, a half-life [37] of 145 min and a half-life [38] of 300 min. For the same compound, the solubility kinetic [14] was 536 µg/mL and the half-life [39] was 2 min.

In the case of `C[C@H](OC(=O)[C@@H](N)CCCCN)C(=O)N1CCC(CCn2c(Sc3cc4c(cc3Br)OCO4)nc3c(N)ncnc32)CC1.Cl.Cl.Cl`, the Activity (Mus musculus [40]) is reported as “Toxic”.

`C[C@H](OC(=O)[C@@H](N)CCCCN)C(=O)N1CCC(CCn2c(Sc3cc4c(cc3Br)OCO4)nc3c(N)ncnc32)CC1` showed an F (Mus musculus [41]) of over 40%, a TGI (NCI-N87 [42]) of over 40% and a solubility [22] of over 1000 µg/mL.
